As usually defined, the surface tension is the force per length acting along the surface.

These results are taken from patent US8142714B2, “Cleaning and disinfection of surgical and medical instruments and appliances” (Chemische Fabrik Dr. Weigert GmbH & Co. KG, priority 2002, dated 2012).

The structures appear in SMILES notation.

Series [1] in a line: Surface tension as specified in DIN 53993. It is filed as physicochemical. The conditions noted are these: NaOH in deionized water, cleaner 1% by volume in Hamburg city water. As to the method:
The cleaning solution diluted in ready-to-use form preferably has a surface tension of less than 50 mN/m, preferably less than 40 mN/m, further preferably less than 35 mN/m, further preferably less than 30 mN/m. The surface tension is determined by the plate-ring method as specified in DIN 53993.
The surface tension was determined as specified in DIN 53993 for the following liquids: […]

Series [2] is described as follows: Cleaning of roughened microscope slides dirtied with blood-egg yolk mixture, immersion bath. The settings on record: 50 mg blood-egg yolk mixture dried at 55° C. for 2 h; stirred immersion bath 10 min at room temperature; cleaner 1% strength by volume. As to the method: Roughened microscope slides are dirtied with 50 mg of a blood-egg yolk mixture, dried at 55° C. for 2 h and then immersed in a stirred bath for 10 min at room temperature. The medium used for the immersion bath is deionized water, 0.1 N NaOH or a 1% strength by volume cleaning solution of the cleaning composition concentrate according to example 1. The residual amount of fouling then determined is 20% by weight for water, 35% by weight for 0.1 N NaOH and less than 5% by weight for the cleaner, as immersion bath medium used.

`[Na+].[OH-]` [0.1 N NaOH, NaOH] displayed a surface tension in series [1] of 72 mN/m. Besides, in series [2], the “residual amount of fouling” value was 35 % by weight.
